Laboratory results taken from patent US11384063B2, “Modulators of estrogen receptor proteolysis and associated methods of use” (Arvinas Operations, Inc., priority 2017, dated 2022).
Read-outs that look alike come from different tables or passages of the source.

Molecular target: T1, ERα (Homo sapiens, UniProt P03372)
T1 sequence (P03372 1-595): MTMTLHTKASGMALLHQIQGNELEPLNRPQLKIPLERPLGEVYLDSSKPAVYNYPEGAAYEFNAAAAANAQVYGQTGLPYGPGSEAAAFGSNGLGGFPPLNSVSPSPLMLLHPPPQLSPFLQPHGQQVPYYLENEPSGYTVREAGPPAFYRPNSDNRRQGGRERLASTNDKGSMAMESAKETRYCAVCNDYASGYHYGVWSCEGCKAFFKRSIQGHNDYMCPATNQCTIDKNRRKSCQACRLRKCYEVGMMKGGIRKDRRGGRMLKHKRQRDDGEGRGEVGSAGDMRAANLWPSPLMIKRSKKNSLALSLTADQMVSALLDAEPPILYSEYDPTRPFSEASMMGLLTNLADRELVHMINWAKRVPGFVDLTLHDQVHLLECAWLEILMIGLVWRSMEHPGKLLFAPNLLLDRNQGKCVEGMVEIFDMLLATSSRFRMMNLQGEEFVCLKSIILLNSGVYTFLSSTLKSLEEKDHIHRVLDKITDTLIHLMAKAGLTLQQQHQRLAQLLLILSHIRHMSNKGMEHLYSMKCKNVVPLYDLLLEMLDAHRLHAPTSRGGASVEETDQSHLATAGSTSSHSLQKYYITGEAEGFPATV
Assay: ERE luciferase reporter gene assay in T47D-KBluc cells (target engagement)
Format: cell-based
Parameters: T47D human breast cancer cells stably transfected with estrogen responsive element/promoter/luciferase reporter gene; host or cells: T47D-KBluc cells
Conditions: 10% FBS, 24 hours
Method: Chimeric molecules were assessed for target engagement in T47D cells using the commercial kit of ERE luciferase reporter gene assay. In the assay, 10% FBS was included and estrogen level was measured to be 10 pM.
ERE Luciferase Assay for Compounds in Table 1-3.
T47D-KBluc cells (ATCC #CRL_2865, T47D human breast cancer cells stably transfected with estrogen responsive element/promoter/luciferase reporter gene) were seeded into 96-well white opaque plates in RPMI growth medium supplemented with 10% fetal bovine serum and allowed to adhere overnight in a 37° C. humidified incubator. The following day, cells were treated with PROTACs in a 12-point concentration curve (top final concentration of 300 nM with subsequent concentrations being 3-fold less with 2 pM being the lowest concentration in the assay). Each PROTAC was tested independently in two experiments on 96-well plates. After 24 hours, media was removed and lysis buffer was added to the wells. Following lysis, Bright-Glo™ Luciferase Assay Substrate (Prornega, Madison Wis.) was added and the luciferase activity was measured using a Cytation 3 plate reader (TioTek™, Winooski, Vt.). Each compound was assayed in duplicates and the activity was calculated as IC50 using GraphPad Prism software (San Diego, Calif.).

[1] = Table 3 cereblon centric PROTACs, read-out: ER-α Luciferase IC50
[2] = Table 2 VHL centric PROTACs, read-out: IC50
[3] = Table 1 cereblon centric PROTACs, read-out: ER-α Luciferase IC50

An IC50 [1] of 1.2 nM was found for O=C1CCC(N2Cc3cc(N4CC(N5CCC(Oc6ccc(Oc7c(-c8ccc(Br)cc8)sc8cc(O)ccc78)cc6)CC5)C4)ccc3C2=O)C(=O)N1 (centres unmarked) [Compound 240] in this work.

An IC50 [1] of 8.7 nM was found for O=C1CCC(N2C(=O)c3ccc(N4CCC(CN5CCC(Oc6ccc(Oc7c(-c8ccc(C(F)(F)F)cc8)sc8cc(O)ccc78)cc6)CC5)CC4)cc3C2=O)C(=O)N1 (centres unmarked) [Compound 188] in this work.

An IC50 [1] of 15.7 nM was found for O=C1CCC(N2C(=O)c3ccc(NCCCOCCCOCCOc4ccc(Oc5c(-c6ccc(Br)cc6)sc6cc(O)ccc56)cc4)cc3C2=O)C(=O)N1 (centres unmarked) [Compound 172] in this work.

An IC50 [2] greater than 100 nM was found for CC(C)(C)[C@H](NC(=O)Cc1ccc(-c2ccn(CCOc3ccc(Oc4c(-c5ccc(F)cc5)sc5cc(O)ccc45)cc3)n2)cc1)C(=O)N1C[C@H](O)C[C@H]1C(=O)NCc1ccc(Cl)cc1 [Compound 146] in this work.

An IC50 [2] greater than 100 nM was found for CC(C)(C)[C@H](NC(=O)COCCOCCN1CCC(c2ccc(Oc3c(-c4ccc(F)cc4)sc4cc(O)ccc34)cc2)CC1)C(=O)N1C[C@H](O)C[C@H]1C(=O)NCc1ccc(Cl)cc1 [Compound 144] in this work.

An IC50 [1] of 3 nM was found for O=C1CCC(N2C(=O)c3ccc(N4CC(CN5CCN(CCOc6ccc(Oc7c(-c8ccc(Br)cc8)sc8cc(O)ccc78)cc6)CC5)C4)cc3C2=O)C(=O)N1 (centres unmarked) [Compound 189] in this work.

An IC50 [3] of 6 nM was found for O=C1CCC(N2Cc3cc(NCCCOCCOc4ccc(Oc5c(-c6ccc(Br)cc6)sc6cc(O)ccc56)cc4)ccc3C2=O)C(=O)N1 (centres unmarked) [Compound 85] in this work.

An IC50 [3] of 27.8 nM was found for O=C1CCC(N2C(=O)c3ccc(OCCCOCCOCCOc4ccc(Oc5c(-c6ccc(Br)cc6)sc6cc(O)ccc56)cc4)cc3C2=O)C(=O)N1 (centres unmarked) [Compound 79] in this work.

An IC50 [1] greater than 300 nM was found for O=C1CCC(N2C(=O)c3ccc(N4CCN(CCC5CN(CCOc6ccc(Oc7c(-c8ccc(Br)cc8)sc8cc(O)ccc78)cc6)C5)CC4)cc3C2=O)C(=O)N1 (centres unmarked) [Compound 186] in this work.

An IC50 [1] of 4.7 nM was found for O=C1CCC(N2Cc3c(cc(F)c(N4CCN(C5CCN(CCOc6ccc(Oc7c(-c8ccc(C(F)(F)F)cc8)sc8cc(O)ccc78)cc6)CC5)CC4)c3F)C2=O)C(=O)N1 (centres unmarked) [Compound 203] in this work.

An IC50 [3] of 3.1 nM was found for O=C1CCC(N2Cc3cc(NCCOCCOc4ccc(Oc5c(-c6ccc(Br)cc6)sc6cc(O)ccc56)cc4)ccc3C2=O)C(=O)N1 (centres unmarked) [Compound 72] in this work.

An IC50 [2] of 0.4 nM was found for Cc1ncsc1-c1ccc(CNC(=O)[C@@H]2C[C@@H](O)CN2C(=O)[C@@H](NC(=O)CCCOCC2CCN(CCOc3ccc(Oc4c(-c5ccc(F)cc5)sc5cc(O)ccc45)cc3)C2)C(C)(C)C)cc1 (some centres unmarked) [Compound 131] in this work.

An IC50 [3] of 1 nM was found for O=C1CCC(N2Cc3cc(OCCCN4CCN(CCOc5ccc(Oc6c(-c7ccc(Br)cc7)sc7cc(O)ccc67)cc5)CC4)ccc3C2=O)C(=O)N1 (centres unmarked) [Compound 34] in this work.

An IC50 [3] of 19.2 nM was found for O=C1CCC(N2C(=O)c3cccc(NCCOCCOc4ccc(Oc5c(-c6ccc(Br)cc6)sc6cc(O)ccc56)cc4)c3C2=O)C(=O)N1 (centres unmarked) [Compound 29] in this work.

An IC50 [1] of 2.8 nM was found for O=C1CCC(N2C(=O)c3ccc(N4CC(CN5CCC(c6ccc(Oc7c(-c8ccc(Br)cc8)sc8cc(O)ccc78)cc6)CC5)C4)cc3C2=O)C(=O)N1 (centres unmarked) [Compound 209] in this work.

An IC50 [1] of 8.7 nM was found for O=C1CCC(N2Cc3cc(NCCCOCCOCCOc4ccc(Oc5c(-c6ccc(Br)cc6)sc6cc(O)ccc56)cc4)ccc3C2=O)C(=O)N1 (centres unmarked) [Compound 171] in this work.

An IC50 [1] of 2.3 nM was found for O=C1CCC(N2Cc3cc(N4CCN(CCOc5ccc(Oc6c(-c7ccc(Br)cc7)sc7cc(O)ccc67)cc5)CC4)ccc3C2=O)C(=O)N1 (centres unmarked) [Compound 210] in this work.

An IC50 [3] of 32.2 nM was found for O=C1CCC(N2C(=O)c3ccc(NCCCOCCCOc4ccc(Oc5c(-c6ccc(Br)cc6)sc6cc(O)ccc56)cc4)cc3C2=O)C(=O)N1 (centres unmarked) [Compound 82] in this work.

An IC50 [3] of 12.1 nM was found for O=C1CCC(N2Cc3cc(N4CCN(CCCCCCOc5ccc(Oc6c(-c7ccc(Br)cc7)sc7cc(O)ccc67)cc5)CC4)ccc3C2=O)C(=O)N1 (centres unmarked) [Compound 54] in this work.

An IC50 [3] of 1.1 nM was found for O=C1CCC(N2Cc3c(OCCN4CCN(CCOc5ccc(Oc6c(-c7ccc(Br)cc7)sc7cc(O)ccc67)cc5)CC4)cccc3C2=O)C(=O)N1 (centres unmarked) [Compound 7] in this work.

An IC50 [2] greater than 100 nM was found for COc1ccc2c(Oc3ccc(OCCN4CCN(CCOCC(=O)N[C@H](C(=O)N5CC(=O)C[C@H]5C(=O)NCc5ccc(-c6scnc6C)cc5)C(C)(C)C)CC4)cc3)c(-c3ccc(Br)cc3)sc2c1 [Compound 159] in this work.

An IC50 [1] of 16.4 nM was found for O=C1CCC(N2Cc3cc(N4CCN(CC5CCN(CCOc6ccc(Oc7c(-c8ccc(C(F)(F)F)cc8)sc8cc(O)ccc78)cc6)CC5)CC4)c(F)cc3C2=O)C(=O)N1 (centres unmarked) [Compound 204] in this work.

An IC50 [1] of 18.7 nM was found for O=C1CCC(N2Cc3nc(N4CCN(CC5CCN(c6c(F)cc(Oc7c(-c8ccc(Br)cc8)sc8cc(O)ccc78)cc6F)CC5)CC4)ccc3C2=O)C(=O)N1 (centres unmarked) [Compound 242] in this work.

An IC50 [1] of 2.8 nM was found for O=C1CCC(N2C(=O)c3ccc(CCCCN4CCCN(CCOc5ccc(Oc6c(-c7ccc(Br)cc7)sc7cc(O)ccc67)cc5)CC4)cc3C2=O)C(=O)N1 (centres unmarked) [Compound 197] in this work.

An IC50 [3] of 39.9 nM was found for O=C1CCC(N2C(=O)c3cccc(NCCOCCOCCOCCOCCOc4ccc(Oc5c(-c6ccc(Br)cc6)sc6cc(O)ccc56)cc4)c3C2=O)C(=O)N1 (centres unmarked) [Compound 20] in this work.

An IC50 [3] of 5.8 nM was found for O=C1CCC(N2C(=O)c3ccc(OCCOCCOc4ccc(Oc5c(-c6ccc(Br)cc6)sc6cc(O)ccc56)cc4)cc3C2=O)C(=O)N1 (centres unmarked) [Compound 66] in this work.

An IC50 [2] of 3 nM was found for Cc1ncsc1-c1ccc(CNC(=O)[C@@H]2C[C@@H](O)CN2C(=O)[C@@H](NC(=O)COCCO[C@@H]2CCN(CCOc3ccc(Oc4c(-c5ccc(F)cc5)sc5cc(O)ccc45)cc3)C2)C(C)(C)C)cc1 [Compound 116] in this work.

An IC50 [3] of 2.9 nM was found for O=C1CC[C@@H](N2Cc3c(OCc4ccc(CN5CCN(CCOc6ccc(Oc7c(-c8ccc(Br)cc8)sc8cc(O)ccc78)cc6)CC5)nc4)cccc3C2=O)C(=O)N1 [Compound 9] in this work.

An IC50 [3] of 0.09 nM was found for O=C1CCC(N2Cc3c(NCCN4CCN(CCOc5ccc(Oc6c(-c7ccc(O)cc7)sc7cc(O)ccc67)cc5)CC4)cccc3C2=O)C(=O)N1 (centres unmarked) [Compound 4] in this work.

An IC50 [3] of 8.9 nM was found for O=C1CCC(N2Cc3c(OCCOCCOCCOc4ccc(Oc5c(-c6ccc(Br)cc6)sc6cc(O)ccc56)cc4)cccc3C2=O)C(=O)N1 (centres unmarked) [Compound 19] in this work.

An IC50 [2] greater than 100 nM was found for COc1ccc2c(Oc3ccc(OCCN4CCN(CCOCC(=O)N[C@H](C(=O)N5C[C@H](O)C[C@H]5C(=O)N[C@@H](C)c5ccc(-c6scnc6C)cc5)C(C)(C)C)CC4)cc3)c(-c3ccc(Br)cc3)sc2c1 [Compound 155] in this work.

An IC50 [3] of 12.7 nM was found for O=C(CN1CCN(CCOc2ccc(Oc3c(-c4ccc(Br)cc4)sc4cc(O)ccc34)cc2)CC1)NCc1ccc2c(c1)CN(C1CCC(=O)NC1=O)C2=O (centres unmarked) [Compound 1] in this work.

An IC50 [3] of 21.5 nM was found for O=C1CCC(N2C(=O)c3ccc(OCCCOCCCOCCOc4ccc(Oc5c(-c6ccc(Br)cc6)sc6cc(O)ccc56)cc4)cc3C2=O)C(=O)N1 (centres unmarked) [Compound 87] in this work.

An IC50 [3] of 0.94 nM was found for O=C1CCC(N2Cc3cc(NCCCN4CCN(CCOc5ccc(Oc6c(-c7ccc(Br)cc7)sc7cc(O)ccc67)cc5)CC4)ccc3C2=O)C(=O)N1 (centres unmarked) [Compound 71] in this work.

An IC50 [3] of 6.5 nM was found for O=C1CCC(N2Cc3cc(OCCCOCCCOCCOc4ccc(Oc5c(-c6ccc(Br)cc6)sc6cc(O)ccc56)cc4)ccc3C2=O)C(=O)N1 (centres unmarked) [Compound 45] in this work.

An IC50 [3] of 8.2 nM was found for O=C1CCC(N2C(=O)c3cccc(NCCOc4ccc(Oc5c(-c6ccc(Br)cc6)sc6cc(O)ccc56)cc4)c3C2=O)C(=O)N1 (centres unmarked) [Compound 32] in this work.

An IC50 [3] of 44.9 nM was found for O=C1CCC(N2C(=O)c3ccc(NCCCOCCOCCOc4ccc(Oc5c(-c6ccc(Br)cc6)sc6cc(O)ccc56)cc4)cc3C2=O)C(=O)N1 (centres unmarked) [Compound 83] in this work.

An IC50 [3] of 2.2 nM was found for O=C1CCC(N2Cc3cc(OC4CC5(CCN(CCOc6ccc(Oc7c(-c8ccc(Br)cc8)sc8cc(O)ccc78)cc6)CC5)C4)ccc3C2=O)C(=O)N1 (centres unmarked) [Compound 50] in this work.

An IC50 [3] of 8.6 nM was found for O=C1CCC(N2Cc3c(OCCOCCOCCOCCOCCOc4ccc(Oc5c(-c6ccc(Br)cc6)sc6cc(O)ccc56)cc4)cccc3C2=O)C(=O)N1 (centres unmarked) [Compound 25] in this work.

An IC50 [3] of 3.1 nM was found for O=C1CCC(N2Cc3cc(OCCOCCOCCOc4ccc(Oc5c(-c6ccc(Br)cc6)sc6cc(O)ccc56)cc4)ccc3C2=O)C(=O)N1 (centres unmarked) [Compound 39] in this work.

An IC50 [3] of 2.6 nM was found for C[C@H](COc1ccc(Oc2c(-c3ccc(Br)cc3)sc3cc(O)ccc23)cc1)N1CCN(CC(=O)NCc2ccc3c(c2)CN(C2CCC(=O)NC2=O)C3=O)CC1 (stereo partly drawn) [Compound 11, 2-{4-[(2R)-1-(4-{[2-(4-bromophenyl)-6-hydroxy-1-benzothiophen-3-yl]oxy}phenoxy)propan-2-yl]piperazin-1-yl}-N-{[2-(2,6-dioxopiperidin-3-yl)-1-oxo-2,3-dihydro-1H-isoindol-5-yl]methyl}acetamide] in this work.
